One may read the EC50 as the concentration needed to bring the measured effect to its halfway point.

This note sets out measurements from ChEMBL document CHEMBL5209586, “Membrane potential-based assay for SLC34A1 using HEK293 JumpIn SLC34A1 OE cells” (2022).

The assay has as its target T1, Sodium-dependent phosphate transport protein 2A (Homo sapiens, UniProt Q06495).
T1 sequence (Q06495 whole entry): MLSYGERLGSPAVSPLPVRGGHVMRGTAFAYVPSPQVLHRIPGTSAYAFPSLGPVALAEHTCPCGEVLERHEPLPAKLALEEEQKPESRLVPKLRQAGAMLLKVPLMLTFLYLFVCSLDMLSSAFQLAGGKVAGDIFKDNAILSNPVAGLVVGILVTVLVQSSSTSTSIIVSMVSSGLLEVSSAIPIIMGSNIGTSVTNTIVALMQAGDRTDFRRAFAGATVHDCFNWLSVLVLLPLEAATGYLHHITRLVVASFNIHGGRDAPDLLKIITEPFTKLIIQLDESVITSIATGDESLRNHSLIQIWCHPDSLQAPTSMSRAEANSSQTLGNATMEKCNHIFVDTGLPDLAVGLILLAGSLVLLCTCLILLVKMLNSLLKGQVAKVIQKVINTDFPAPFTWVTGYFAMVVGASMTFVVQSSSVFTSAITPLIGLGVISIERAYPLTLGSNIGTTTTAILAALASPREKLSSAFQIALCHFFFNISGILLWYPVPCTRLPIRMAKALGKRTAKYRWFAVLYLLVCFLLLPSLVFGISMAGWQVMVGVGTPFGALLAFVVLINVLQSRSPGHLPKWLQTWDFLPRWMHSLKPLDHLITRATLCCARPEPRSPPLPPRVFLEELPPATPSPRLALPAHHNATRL
Description: Substrate uptake by the Sodium-Dependent Phosphate Transport Protein 2A (NPT2a, SLC34A1) as assessed by the fluorescent FLIPR membrane potential dye in HEK-293 JumpIN-SLC34A1 cells (PubChem AID: 1794813)

With `O=P([O-])(O)O.[K+]` [POTASSIUM PHOSPHATE, MONOBASIC], the EC50 came to 39 µM.
Then `O=P([O-])([O-])O.[Na+].[Na+]` [SODIUM PHOSPHATE, DIBASIC, ANHYDROUS], with 32 µM.
